In patent US12559474B2, “Triazine derivatives having virus replication inhibitory activity and pharmaceutical composition comprising the same” (priority 2021, dated 2026):
Where two headings read alike, the source gives them in different places.

Legend:
SARS-CoV-2 3CL protease = SARS-CoV-2 3CL protease (Severe acute respiratory syndrome coronavirus 2, UniProt P0DTD1); experiment: biochemical; conditions: 50% SARS-CoV-2 3CL protease inhibitory concentration, read-out: IC50
SARS-CoV-2 = experiment: microbe, parasite or virus in culture; assay type: cell-based; conditions: Severe acute respiratory syndrome coronavirus 2, VeroE6/TMPRSS2, 72 h, 50% SARS-CoV-2 infected cell death inhibitory concentration, VeroE6/TMPRSS2 cells, 3 days culture

| Structure (SMILES) | IC50 (SARS-CoV-2 3CL protease; given as class symbols) [nM] | EC50 (SARS-CoV-2; class symbols) [nM] | IC50 (SARS-CoV-2 3CL protease; RapidFire MS) [nM] | EC50 (SARS-CoV-2; CellTiter-Glo 2.0) [nM] |
| --- | --- | --- | --- | --- |
| Cc1cncc(-n2c(=O)nc(Nc3ccc4nn(C)c(C)c4c3)n(Cc3ccc(F)c(C#N)c3)c2=O)c1 [II-0264] | < 100 | 1000 to 10000 |  |  |
| Cn1cnc(Cn2c(=O)nc(Nc3cc4cn(C)nc4cc3Cl)n(Cc3cc(F)c(F)c(Cl)c3)c2=O)n1 [II-0045] |  |  | 4.7 | 218 |
| Cc1cncc(-n2c(=O)nc(Nc3cc4cn(C)nc4cc3Cl)n(Cc3cc(C#N)c(F)cc3C(F)F)c2=O)c1 [II-0583] | < 100 | < 1000 |  |  |
| N#Cc1cc(Cn2c(Nc3ccc4c(c3)CCO4)nc(=O)n(-c3cncc(F)c3)c2=O)ccc1F [Compound I-0350] | < 100 | < 1000 |  |  |
| COCCCn1cc2cc(Nc3nc(=O)n(Cc4ccc[nH]c4=O)c(=O)n3Cc3cc(F)c(F)c(F)c3)c(Cl)cc2n1 [Compound I-0248] | < 100 | 1000 to 10000 |  |  |
| Cn1cc2cc(Nc3nc(=O)n(-c4cnc5ccccn45)c(=O)n3Cc3cc(Cl)c(F)cc3F)c(Cl)cc2n1 [II-0487] | < 100 | 1000 to 10000 |  |  |
| CNc1nc2ccc(Nc3nc(=O)n(-c4cncc(Cl)c4)c(=O)n3Cc3cc(C#N)ccc3Cl)cc2s1 [II-0398] | < 100 | < 1000 |  |  |
| Cn1cnc(Cn2c(=O)nc(Nc3cc4cn(C)nc4cc3Cl)n(Cc3cc(F)c(F)c(F)c3F)c2=O)n1 [Compound I-0483] |  |  | 9.8 | 395 |
| Cc1cncc(-n2c(=O)nc(Nc3cc4cn(C)nc4cc3Cl)n(Cc3cc(Cl)c(F)cn3)c2=O)c1 [II-0541] | < 100 | < 1000 |  |  |
| CNc1cncc(-n2c(=O)nc(Nc3cc4cn(C)nc4cc3Cl)n(Cc3cc(Cl)c(F)cc3F)c2=O)c1 [II-0599] | < 100 | < 1000 |  |  |
| CCCCn1cc2cc(Nc3nc(=O)n(Cc4ccc[nH]c4=O)c(=O)n3Cc3cc(F)c(F)c(F)c3)c(Cl)cc2n1 [Compound I-0286] | < 100 | 1000 to 10000 |  |  |
| Cn1cnc(Cn2c(=O)nc(Nc3cc4cn(C)nc4cc3Cl)n(Cc3cccc(F)c3F)c2=O)n1 [II-0217] | < 100 | 1000 to 10000 |  |  |
| Cc1cncc(-n2c(=O)nc(Nc3cc4cn(C5CCOCC5)nc4cc3Cl)n(Cc3ccc(F)c(C#N)c3)c2=O)c1 [II-0096] | < 100 | < 1000 |  |  |
| COc1ccc(Nc2nc(=O)n(-c3cncc(C4CC4)c3)c(=O)n2Cc2cc(F)c(F)c(F)c2)cc1 [II-0272] |  |  | 180 | 1590 |
| COc1ccc(Nc2nc(=O)n(-c3cncc4ccccc34)c(=O)n2Cc2cc(F)c(F)c(F)c2)c(Cl)c1 [Compound I-0152] | < 100 | < 1000 |  |  |
| CNc1nc2cc(Cl)c(Nc3nc(=O)n(-c4cncc(C)c4)c(=O)n3Cc3ccc(F)c(C#N)c3)cc2s1 [II-0382] | < 100 | < 1000 |  |  |
| Cc1cncc(-n2c(=O)nc(Nc3cc4cn(CC(F)F)nc4cc3Cl)n(Cc3cc(F)c(F)c(F)c3)c2=O)c1 [II-0090] |  |  | 16 | 355 |
| CN(C)C(=O)c1ccc(Cn2c(=O)nc(Nc3cc4c(cc3Cl)OCC4)n(Cc3cc(F)c(F)c(F)c3)c2=O)c(=O)[nH]1 [Compound I-0064] | < 100 | 1000 to 10000 |  |  |
| COC(=O)c1cncc(-n2c(=O)nc(Nc3cc4cn(C)nc4cc3Cl)n(Cc3cc(F)c(F)c(F)c3)c2=O)c1 [II-0275] |  |  | 360 | 7280 |
| CCNc1nc2cc(Cl)c(Nc3nc(=O)n(-c4cncc(C)c4)c(=O)n3Cc3ccc(F)c(C#N)c3)cc2s1 [II-0336] | < 100 | < 1000 |  |  |
| Cn1cc2cc(Nc3nc(=O)n(-c4cncc(N)c4)c(=O)n3Cc3cc(F)c(F)c(Cl)c3)c(Cl)cc2n1 [II-0384] | < 100 | 1000 to 10000 |  |  |
| Cc1cncc(-n2c(=O)nc(Nc3cc4cn(CCN5CCOCC5)nc4cc3Cl)n(Cc3cc(F)c(F)cc3F)c2=O)c1 [II-0007] | < 100 | < 1000 |  |  |

| Structure (SMILES) | IC50 (SARS-CoV-2 3CL protease; given as class symbols) [nM] | EC50 (SARS-CoV-2; class symbols) [nM] | IC50 (SARS-CoV-2 3CL protease; RapidFire MS) [nM] | EC50 (SARS-CoV-2; CellTiter-Glo 2.0) [nM] |
| --- | --- | --- | --- | --- |
| COc1ccc(Nc2nc(=O)n(-c3cncc4ccccc34)c(=O)n2Cc2cc(F)c(F)c(C#N)c2)cc1 [Compound I-0480] |  |  | 6.5 | 72.6 |
| Cn1cnc(Cn2c(=O)nc(Nc3cc4cn(C)nc4cc3F)n(Cc3cc(Cl)c(F)cc3F)c2=O)n1 [II-0515] | < 100 | 1000 to 10000 |  |  |
| Cc1cncc(-n2c(=O)nc(Nc3ccc4nn(C)cc4c3)n(Cc3ccc(F)c(C#N)c3)c2=O)c1 [II-0173] |  |  | 15 | 272 |
| Cn1cnc(Cn2c(=O)nc(N3CCc4ccccc4CC3)n(Cc3cc(F)c(F)c(F)c3)c2=O)n1 [II-0550] |  |  | 1100 | 6420 |
| Cc1cncc(-n2c(=O)nc(Nc3cc4cn(C[C@H](C)O)nc4cc3Cl)n(Cc3cc(F)c(F)cc3F)c2=O)c1 [II-0100] | < 100 | < 1000 |  |  |
| COc1ccc(Nc2nc(=O)n(Cc3ncn(C)n3)c(=O)n2Cc2cc(F)c(F)c(F)c2)cc1 [Compound I-0335] | 100 to 1000 | 1000 to 10000 |  |  |
| Cn1cnc(Cn2c(=O)nc(Nc3cc4c(F)n(C)nc4cc3Cl)n(Cc3cc(F)c(F)cc3F)c2=O)n1 [II-0455] |  |  | 19 | 750 |
| Cc1cncc(-n2c(=O)nc(Nc3cc4cn(C)nc4cc3F)n(Cc3cc(F)c(F)cc3F)c2=O)c1 [II-0528] | < 100 | < 1000 |  |  |
| N#Cc1cc(Cn2c(Nc3cc4cn(CCO)nc4cc3Cl)nc(=O)n(-c3cccc4ccccc34)c2=O)ccc1F [Compound I-0435] | < 100 | 1000 to 10000 |  |  |
| Cc1cncc(-n2c(=O)nc(Nc3cc4cn(C)nc4cc3Cl)n(Cc3cc(F)c(F)cc3Br)c2=O)c1 [II-0404] | < 100 | < 1000 |  |  |
| Cn1cnc(Cn2c(=O)nc(Nc3cc4cccnc4cc3Cl)n(Cc3cc(F)c(F)cc3F)c2=O)n1 [II-0039] | < 100 | 1000 to 10000 |  |  |
| Cn1cnc(Cn2c(=O)nc(Nc3cc4cn(CC(=O)OC(C)(C)C)nc4cc3Cl)n(Cc3cc(F)c(F)c(Cl)c3)c2=O)n1 [II-0311] | < 100 | 1000 to 10000 |  |  |
| N#Cc1cc(Cn2c(Nc3ccc4c(c3)CCO4)nc(=O)n(-c3cncc(Cl)c3)c2=O)ccc1F [Compound I-0348] | < 100 | < 1000 |  |  |
| Cn1cc2cc(Nc3nc(=O)n(-c4cncc5ccccc45)c(=O)n3Cc3cc(F)c(F)cc3F)c(Cl)cc2n1 [II-0308] | < 100 | < 1000 |  |  |
| O=c1nc(Nc2cc3c(cc2Cl)nc2n3CCN2)n(Cc2cc(Cl)c(F)cc2F)c(=O)n1-c1cncc(Cl)c1 [II-0349] | < 100 | 1000 to 10000 |  |  |
| Cc1cncc(-n2c(=O)nc(Nc3cc4cn(C)nc4cc3Cl)n(Cc3cccc(F)c3F)c2=O)c1 [II-0187] | < 100 | < 1000 |  |  |
| CCn1cc2cc(Nc3nc(=O)n(-c4cncc(C)c4)c(=O)n3Cc3cc(C#N)c(F)cc3C)c(Cl)cc2n1 [II-0233] |  |  | 1.5 | 65 |
| Cc1cncc(-n2c(=O)nc(Nc3cc4cn(CC(F)F)nc4cc3F)n(Cc3cc(F)c(F)cc3F)c2=O)c1 [II-0355] | < 100 | < 1000 |  |  |
| COc1ccc(Nc2nc(=O)n(-c3cnnc(C)c3)c(=O)n2Cc2cc(F)c(F)c(F)c2)cc1 [II-0394] |  |  | 3900 | 44900 |
| Cn1cnc(Cn2c(=O)nc(Nc3cc4cn(Cc5ccccn5)nc4cc3Cl)n(Cc3cc(F)c(F)c(Cl)c3)c2=O)n1 [II-0006] | < 100 | 1000 to 10000 |  |  |
| Cc1cncc(-n2c(=O)nc(Nc3ccc4nc(NCC(F)(F)F)sc4c3)n(Cc3ccc(F)c(C#N)c3)c2=O)c1 [II-0298] | < 100 | 1000 to 10000 |  |  |
